Measured values published in patent US20230285524A1, “USE OF ELAFIN FOR DISORDERS ASSOCIATED WITH ELASTASE INDEPENDENT INCREASE IN TROPONIN” (tiakis Biotech AG, priority 2014, published 2023).

Assays:
IL-6 = assay: Serum interleukin 6 after on-pump coronary artery bypass grafting surgery, Elafin versus placebo; assay type: in vivo, human; conditions: 200 mg i.v. infusion
Procedure: (§1) 44 Patients undergoing on-pump coronary artery bypass grafting surgery received a 200 mg dose of Elafin in 250 mL of normal saline by intravenous infusion that was started at first skin incision and completed at least 20 min before cardiopulmonary bypass commenced. A second group of 42 patients undergoing the same surgical procedure received 250 ml normal saline (placebo) per infusion instead.
Blood was drawn from patients and from the blood samples serum was prepared. Serum levels of interleukin 6 were determined by the use of a Human Interleukin 6 Immunoassay (R&D Systems Europe, Abingdon, UK) according to the instructions of the manufacturer. This assay employs the quantitative sandwich enzyme immunoassay technique. A monoclonal antibody specific for IL-6 has been pre-coated onto a microplate. Interleukin 6 standards and samples were pipetted into wells and any IL-6 present was bound by an immobilized antibody. After washing away any unbound substances, an enzyme-linked polyclonal antibody specific for IL-6 was added to the wells. Following a wash to remove any unbound antibody-enzyme reagent, a substrate solution was added to the wells. After an incubation period, an amplifier solution was added to the wells and color developed in proportion to the amount of IL-6 bound in the initial step. The color development was stopped and the intensity of the color is measured.

C-reactive protein (CRP) = assay: Serum C-reactive protein after on-pump coronary artery bypass grafting surgery, Elafin versus placebo; assay type: in vivo, human; conditions: 200 mg i.v. infusion, time point 6 h
Procedure: as §1
Blood was drawn from patients and from the blood samples serum was prepared. Serum levels of the inflammatory marker C-reactive protein (CRP) at time point 6 h were measured (FIG. 4).

U937 = U937 cells, Butler et al., 2006, cited from earlier work
[1] = rats; cited from earlier work
[2] = test system: troponin I release from cardiomyocytes; assay: Plasma cTroponin I after coronary artery bypass grafting surgery, randomized double-blinded trial, Elafin versus placebo; assay type: in vivo, human; conditions: 200 mg i.v. infusion at start of surgery
Procedure: Patients undergoing coronary artery bypass grafting surgery were treated with either intravenous infusion of a 200 mg dose of Elafin in 250 mL of normal saline (Elafin group, n=44) or 250 mL of normal saline (placebo group, n=42) in a randomized, double-blinded clinical trial. The intravenous infusion was started at first skin incision and completed at least 20 min before cardiopulmonary bypass commenced.
Blood samples were taken at baseline (time 0, skin incision) and at 2, 6, 24 and 48 h post-operatively. Plasma cTroponin I concentrations were quantified with the Abbott Architect highly-sensitive assay (Abbott Laboratories, ILL) according to the manufacturer's instructions. This assay has a sensitivity of 0.01 ng/mL or less, with a 10% coefficient of variation of 0.032 ng/mL and a 99th percentile (male and female) of 0.012 ng/mL. cTroponin I is a regulatory protein of cardiomyocyte contraction and its presence in blood plasma is a specific indication of cardiomyocyte injury.

20 S proteasome = conditions: Butler et al., 2006; cited from earlier work

Substance: Elafin: recombinant human protein of 57 amino acids (SEQ ID NO:1), reversible tight binding inhibitor of elastase and proteinase 3 (AQEPVKGPVSTKPGSCPIILIRCAMLNPPNRCLKDTDCPGIKKCCEGSCGMACFVPQ; listed as Homo sapiens)
- effect on serum level of IL-6 (postoperative rise) (IL-6): no effect
- effect on serum level of IL-6 (postoperative rise) (IL-6; listed as elafin): not affected
- effect on serum level of CRP (postoperative rise) (C-reactive protein (CRP)): no effect
- effect on serum level of CRP (postoperative rise) (C-reactive protein (CRP); listed as elafin): not affected
- LPS-induced activation of the transcription factors AP-1 and NF-κB (U937): inhibited
- production of macrophage chemokine MCP-1 (CCL2) (U937; LPS): inhibition
- side effects after intravenous administration [1]: without any side effects
- reduction of troponin I release 6 hours after commencement of surgery ([2]; 6 h): significant reduction
- overall reduction of the Troponin I release (area under the curve) over 48 hours, in words ([2]; AUC 0-48 h): overall reduction
- overall reduction of the troponin I release over 48 hours (area under the curve) ([2]; AUC 0-48 h): 20-40%
- inhibition of peptidase activities associated with the 20 S proteasome (20 S proteasome): no inhibition
